The text below walks through data of patent US20020010317A1, “Method for generating immunogens that elicit neutralizing antibodies against fusion-active regions of HIV envelope proteins” (priority 2000, published 2002).

Experiment [1] has as its system HIV-1 envelope mediated cell-cell fusion. The conditions noted are these: cited from earlier work.
A further experiment deals with gp41 (HXB2 strain) (Human immunodeficiency virus type 1 group M subtype B, UniProt P04578).
For experiment [2], the system named is divergent HIV-1 virus isolates. The experiment can be described thus: immunization of guinea pigs with P-18, neutralizing antibody response. The settings on record: two of three animals; 100 μg intramuscularly in Freund's adjuvant. In kind it is in vivo, guinea pig. The method, then:
Antibody binding assays can be used to determine the ability of the immunogen vaccines to generate an immune response to various forms of envelope (native vs. denatured). Virus neutralization assays can be used to characterize the antibody response raised against the gp41 domains. The most encouraging results have been from animals immunized with the peptide P-18 modeling the C-helix entry domain (amino acid residues 643-678 of gp41 ).
Guinea pigs were immunized intramuscularly with 100 μg of P-18 formulated in either Freund's complete (prime) or incomplete (boost) adjuvant. Animals were immunized on days 0, 21, 34, 48 and 62. Blood was collected on days 44,58 and 72. In our initial screen, sera at a 1:10 dilution were tested for the ability to inhibit virus-induced cell killing. In these assays, two of the three animals receiving the P-18 peptide (guinea pigs 233 and 234) were able to block the cytopathic effects of a pair of prototypic HIV-1 isolates. Against the MN isolate, >80% protection was achieved, while against the RF isolate, protection was >50%.

gp41 (HXB2 strain), sequence (P04578 512-856): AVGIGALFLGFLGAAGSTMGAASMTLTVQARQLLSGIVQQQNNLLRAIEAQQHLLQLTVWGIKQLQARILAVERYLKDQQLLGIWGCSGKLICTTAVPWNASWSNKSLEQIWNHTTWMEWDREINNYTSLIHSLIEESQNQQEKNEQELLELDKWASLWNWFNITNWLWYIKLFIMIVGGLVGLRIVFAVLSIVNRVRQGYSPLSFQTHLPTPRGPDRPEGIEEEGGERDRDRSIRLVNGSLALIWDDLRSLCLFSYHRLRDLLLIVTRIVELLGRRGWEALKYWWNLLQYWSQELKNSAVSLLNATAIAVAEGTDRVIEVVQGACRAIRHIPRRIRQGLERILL

Turning to “NNLLRAIEAQQHLLQLTVWQIKQLQARILAVERYLKDQ (NNLLRAIEAQQHLLQLTVWGIKQLQARILAVERYLKDQ) [DP-107]”, the “level inhibiting cell-cell fusion” value in experiment [1] is “sub-μg/ml levels”. For the substance P-18-GGG-YPYDVPDYAGPG [P-18HA], the “binding to and co-immunoprecipitation of gp41” value at gp41 (HXB2 strain) is “bound to and co-immunoprecipitated gp41”. On to enfuvirtide, for which the “neutralizing antibody response in immunized animals” value in experiment [2] is “exhibited a neutralizing antibody response against divergent virus isolates”. Further, the “concentration inhibiting envelope mediated cell-cell fusion” value in experiment [1] (concentrations as low as) was “about 1 ng/ml”.
